Measurements reported in patent publication US20250230154A1, “COMPOUND HAVING SHP2 PROTEIN DEGRADING ACTIVITY, AND MEDICAL USES THEREOF” (UBIX THERAPEUTICS, INC., priority 2021, published 2025).

Target: T1, SHP2 protein (Homo sapiens, UniProt Q06124)
T1 sequence (Q06124 1-593): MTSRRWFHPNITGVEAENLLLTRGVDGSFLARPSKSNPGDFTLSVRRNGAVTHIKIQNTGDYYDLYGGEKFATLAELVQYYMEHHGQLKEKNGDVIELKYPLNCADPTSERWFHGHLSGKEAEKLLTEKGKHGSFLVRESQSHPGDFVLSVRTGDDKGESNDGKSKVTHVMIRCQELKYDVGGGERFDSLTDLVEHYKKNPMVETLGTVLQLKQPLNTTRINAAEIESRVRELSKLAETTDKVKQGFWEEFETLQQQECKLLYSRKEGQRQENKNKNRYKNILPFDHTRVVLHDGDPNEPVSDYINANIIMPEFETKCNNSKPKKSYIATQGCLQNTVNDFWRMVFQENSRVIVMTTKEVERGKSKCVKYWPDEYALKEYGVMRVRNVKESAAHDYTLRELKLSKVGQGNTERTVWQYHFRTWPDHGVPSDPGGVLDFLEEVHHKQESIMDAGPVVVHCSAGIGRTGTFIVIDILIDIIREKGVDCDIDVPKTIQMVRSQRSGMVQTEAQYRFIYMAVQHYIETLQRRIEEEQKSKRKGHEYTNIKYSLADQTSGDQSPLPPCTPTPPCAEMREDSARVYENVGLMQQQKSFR
Test: Measurement of SHP2 protein degradation in MV-4-11 cells (western blotting)
Type: cell-based
Parameters: endogenous in cells; host or cells: MV-4-11
Details: for SHP2 degradation (%) 10 nM / SHP2 degradation (%) 100 nM / SHP2 degradation (%) 1000 nM: MV-4-11 cells, 24 hours; for SHP2 protein degradation activity (in words): comment on Table 4
Method in brief: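 SHP2 protein levels were assessed by western blotting in MV-4-11 cells after a 24 hour compound treatment. Lysates were sonicated, centrifuged, normalized by BCA assay at 562 nm, run on Bis-tris 4-12% gels, transferred to NC membrane, probed with anti-SHPTP2 (70 kDa) and anti-GAPDH (37 kDa) antibodies, and detected on LI-COR Odyssey.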

SMILES	SHP2 degradation (%) 10 nM [%]	SHP2 degradation (%) 100 nM [%]	SHP2 degradation (%) 1000 nM [%]	SHP2 protein degradation activity (in words)
CC(=O)N[C@H](C(=O)N1C[C@H](O)C[C@H]1C(=O)NCc1ccc(-c2scnc2C)cc1OCCC1CCN(C(=O)CC(=O)Nc2cccc(Sc3cnc(N4CCC(C)(CN)CC4)cn3)c2Cl)CC1)C(C)(C)C [Example 38, (2S,4R)-1-((S)-2-acetamido-3,3-dimethylbutanoyl)-N-(2-(2-(1-(3-((3-((5-(4-(aminomethyl)-4-methylpiperidin-1-yl)pyrazin-2-yl)thio)-2-chlorophenyl)amino)-3-oxopropanoyl)piperidin-4-yl)ethoxy)-4-(4-methylthiazol-5-yl)benzyl)-4-hydroxypyrrolidine-2-carboxamide]	86	93	93.5	
Cc1ncsc1-c1ccc(CNC(=O)[C@@H]2C[C@@H](O)CN2C(=O)[C@@H](NC(=O)C2(F)CC2)C(C)(C)C)c(OCCCN2CCN(C(=O)CC(=O)Nc3cccc(Sc4cnc(N5CCC(C)(CN)CC5)cn4)c3Cl)[C@H](C)C2)c1 [Example 65]	31.6	95.4		
Cc1ncsc1-c1ccc(CNC(=O)[C@@H]2C[C@@H](O)CN2C(=O)[C@@H](NC(=O)C2CC2)C(C)(C)C)c(OCCN2CCN(C(=O)CC(=O)Nc3cccc(Sc4cnc(N5CCC(C)(CN)CC5)cn4)c3Cl)CC2)c1 [Example 56, (2S,4R)—N-(2-(2-(4-(3-((3-((5-(4-(aminomethyl)-4-methylpiperidin-1-yl)pyrazin-2-yl)thio)-2-chlorophenyl)amino)-3-oxopropanoyl)piperazin-1-yl)ethoxy)-4-(4-methylthiazol-5-yl)benzyl)-1-((S)-2-(cyclopropanecarboxamido)-3,3-dimethylbutanoyl)-4-hydroxypyrrolidine-2-carboxamide]	91.4	98.9		
Cc1ncsc1-c1ccc(CNC(=O)[C@@H]2C[C@@H](O)CN2C(=O)[C@@H](NC(=O)C2(F)CC2)C(C)(C)C)c(OC2CC3(CCN(c4cnc(C(=O)Nc5cccc(Sc6cnc(N7CCC(C)(CN)CC7)cn6)c5Cl)nc4)CC3)C2)c1 [Example 87, N-(3-((5-(4-(aminomethyl)-4-methylpiperidin-1-yl)pyrazin-2-yl)thio)-2-chlorophenyl)-5-(2-(2-(((2S,4R)-1-((S)-2-(1-fluorocyclopropane-1-carboxamido)-3,3-dimethylbutanoyl)-4-hydroxypyrrolidine-2-carboxamido)methyl)-5-(4-methylthiazol-5-yl)phenoxy)-7-azaspiro[3.5]nonan-7-yl)pyrimidine-2-carboxamide]	9.1	45.5		
Cc1ncsc1-c1ccc(CNC(=O)[C@@H]2C[C@@H](O)CN2C(=O)[C@@H](NC(=O)C2(F)CC2)C(C)(C)C)c(OCCN2CCN(C(=O)C(C)(C)C(=O)Nc3cccc(Sc4cnc(N5CCC(C)(CN)CC5)cn4)c3Cl)CC2)c1 [Example 59, (2S,4R)—N-(2-(2-(4-(3-((3-((5-(4-(aminomethyl)-4-methylpiperidin-1-yl)pyrazin-2-yl)thio)-2-chlorophenyl)amino)-2,2-dimethyl-3-oxopropanoyl)piperazin-1-yl)ethoxy)-4-(4-methylthiazol-5-yl)benzyl)-1-((S)-2-(1-fluorocyclopropane-1-carboxamido)-3,3-dimethylbutanoyl)-4-hydroxypyrrolidine-2-carboxamide]	−2.0	3.0		somewhat decreased
Cc1ncsc1-c1ccc(CNC(=O)[C@@H]2C[C@@H](O)CN2C(=O)[C@@H](NC(=O)C2(F)CC2)C(C)(C)C)c(OCCCC2CCN(CCC(=O)Nc3cccc(Sc4cnc(N5CCC(C)(CN)CC5)cn4)c3Cl)CC2)c1 [Example 75, (2S,4R)—N-(2-(3-(1-(3-((3-((5-(4-(aminomethyl)-4-methylpiperidin-1-yl)pyrazin-2-yl)thio)-2-chlorophenyl)amino)-3-oxopropyl)piperidin-4-yl)propoxy)-4-(4-methylthiazol-5-yl)benzyl)-1-((S)-2-(1-fluorocyclopropane-1-carboxamido)-3,3-dimethylbutanoyl)-4-hydroxypyrrolidine-2-carboxamide]	19.5	75.5	93.5	
Cc1ncsc1-c1ccc(CNC(=O)[C@@H]2C[C@@H](O)CN2C(=O)[C@@H](NC(=O)C2(F)CC2)C(C)(C)C)c(OCCCC2CCN(C(=O)C3(C(=O)Nc4cccc(Sc5cnc(N6CCC(C)(CN)CC6)cn5)c4Cl)CC3)CC2)c1 [Example 48, (2S,4R)—N-(2-(3-(1-(1-((3-((5-(4-(aminomethyl)-4-methylpiperidin-1-yl)pyrazin-2-yl)thio)-2-chlorophenyl)carbamoyl)cyclopropane-1-carbonyl)piperidin-4-yl)propoxy)-4-(4-methylthiazol-5-yl)benzyl)-1-((S)-2-(1-fluorocyclopropane-1-carboxamido)-3,3-dimethylbutanoyl)-4-hydroxypyrrolidine-2-carboxamide]	18.6	57.3		somewhat decreased
Cc1ncsc1-c1ccc(CNC(=O)[C@@H]2C[C@@H](O)CN2C(=O)[C@@H](NC(=O)C2(F)CC2)C(C)(C)C)c(OCCN2CCN(C(=O)CC(=O)Nc3cccc(Sc4ncc(N5CCC(C)(N)CC5)nc4N)c3Cl)CC2)c1 [Example 54, (2S,4R)—N-(2-(2-(4-(3-((3-((3-amino-5-(4-amino-4-methylpiperidin-1-yl)pyrazin-2-yl)thio)-2-chlorophenyl)amino)-3-oxopropanoyl)piperazin-1-yl)ethoxy)-4-(4-methylthiazol-5-yl)benzyl)-1-((S)-2-(1-fluorocyclopropane-1-carboxamido)-3,3-dimethylbutanoyl)-4-hydroxypyrrolidine-2-carboxamide]	85.8	98.3		
Cc1ncsc1-c1ccc(CNC(=O)[C@@H]2C[C@@H](O)CN2C(=O)[C@@H](NC(=O)C2(F)CC2)C(C)(C)C)c(OCCOc2cnc(N3CCC(CCCC(=O)Nc4cccc(Sc5cnc(N6CCC(C)(CN)CC6)cn5)c4Cl)CC3)nc2)c1 [Example 90, (2S,4R)—N-(2-(2-((2-(4-(4-((3-((5-(4-(aminomethyl)-4-methylpiperidin-1-yl)pyrazin-2-yl)thio)-2-chlorophenyl)amino)-4-oxobutyl)piperidin-1-yl)pyrimidin-5-yl)oxy)ethoxy)-4-(4-methylthiazol-5-yl)benzyl)-1-((S)-2-(1-fluorocyclopropane-1-carboxamido)-3,3-dimethylbutanoyl)-4-hydroxypyrrolidine-2-carboxamide]	6	97	98	
CC(=O)N[C@H](C(=O)N1C[C@H](O)C[C@H]1C(=O)NCc1ccc(-c2scnc2C)cc1OCCCC1CCN(C(=O)CC(=O)Nc2cccc(Sc3cnc(N4CCC(C)(CN)CC4)cn3)c2Cl)CC1)C(C)(C)C [Example 43, (2S,4R)-1-((S)-2-acetamido-3,3-dimethylbutanoyl)-N-(2-(3-(1-(3-((3-((5-(4-(aminomethyl)-4-methylpiperidin-1-yl)pyrazin-2-yl)thio)-2-chlorophenyl)amino)-3-oxopropanoyl)piperidin-4-yl)propoxy)-4-(4-methylthiazol-5-yl)benzyl)-4-hydroxypyrrolidine-2-carboxamide]	80.0	96.5		
Cc1ncsc1-c1ccc(CNC(=O)[C@@H]2C[C@@H](O)CN2C(=O)[C@@H](NC(=O)C2(F)CC2)C(C)(C)C)c(OCCCN2CCN(C(=O)CC(=O)Nc3cccc(Sc4cnc(N5CCC(C)(CN)CC5)cn4)c3Cl)CC2)c1 [Example 60, (2S,4R)—N-(2-(3-(4-(3-((3-((5-(4-(aminomethyl)-4-methylpiperidin-1-yl)pyrazin-2-yl)thio)-2-chlorophenyl)amino)-3-oxopropanoyl)piperazin-1-yl)propoxy)-4-(4-methylthiazol-5-yl)benzyl)-1-((S)-2-(1-fluorocyclopropane-1-carboxamido)-3,3-dimethylbutanoyl)-4-hydroxypyrrolidine-2-carboxamide]	59	94	95.5	
